Entries after “also recorded” stand apart in the source; their conditions may differ. Marks after values point to notes of the source that are not given here.
Columns and labels:
[1] = Pharmacokinetics in mice, 2 mg/kg iv; assay type: in vivo; details: female, BALB/c, mouse, plasma
Method: To test compound drug-like properties, selected compounds with low IC50 were further evaluated for their pharmacokinetic (PK) profile. 6–8 week-old BABL/c female mice were used. Two mg/kg of compounds was formulated in 7.5% DMSO and 92.5% PBS solution and intravenously dosed into the tail vein as a bolus. Blood samples were collected by cardiac puncture at 5, 15, 30, 60, 180, and 240 min post dosing. Plasma samples were prepared by centrifugation at 7000 rpm for 5 min, and supernatants were collected, immediately snap-frozen on dry ice and stored at −20 °C. Samples were analyzed by liquid chromatography-tandem mass spectrometry using electrospray ionization and data was analyzed by WinNonlin software.

[2] = test system: P-p38 in human brain endothelial cell line hCMEC/D3; test: p38 phosphorylation in hCMEC/D3 cells (immunoblotting); assay type: cell-based
Method: Cell lysates of the human brain endothelial cell line hCMEC/D3 were prepared in RIPA buffer containing 0.1% SDS, protease inhibitor cocktail 2 and phosphatase inhibitor cocktail (Sigma-Aldrich). Proteins were separated by SDS-PAGE and transferred to nitrocellulose by wet electrotransfer. Membranes were blocked with 5% milk in Tris-buffered saline (TBS) overnight at 4 °C and then incubated with the appropriate primary antibody diluted in TBS containing 0.1% Tween-20 and 1% BSA for 2 h and 30 min at rt; the primary antibodies used were specific for phospho P-p38, p38 (1:1000; Cell Signaling Technology) and GADPH (1:10000; Merck). Membranes were washed with 0.1% Tween-20 in TBS and then incubated with goat antimouse or goat antirabbit horseradish peroxidase (HRP)-conjugated IgG (GE Healthcare) diluted 1:10,000 or 1:5000, respectively, with 0.1% Tween-20, 1% BSA in PBS. Membranes were developed using the ECL reagents (Roche) and images were acquired with the Bio-Rad ChemiDoc MP Imaging System and the Bio-Rad Image Lab software (version 6.0.1). Protein bands were quantified using ImageJ software version 1.52a (NIH Bethesda), whereby signal intensity was normalized to signal intensity from GADPH from the same sample as a loading control. Phosphorylation levels were normalized against the total levels of p38. Densitometric quantification of three independent immunoblots was determined by changes in protein or phosphoprotein content normalized to GADPH total protein loading controls, with values expressed as fold increase. Data are shown as mean ± SD. Statistical analysis included one-way ANOVA with significance levels set at 0.05, followed by posthoc Dunnett’s tests.

NRP1 b1 domain = biological target: T1, NRP1 b1 domain (Homo sapiens, UniProt O14786); test: SPR binding to immobilized NRP1 b1 domain (Biacore 4000, CM5 chip)
T1 construct: with the purified recombinant NRP1 b1 domain immobilized on the chip; inferred from Ni-NTA capture), TEV-cleavable (cleaved yes); made in house; host or cells: E. coli Rosetta (DE3)
T1 sequence (O14786 275-424 limits assumed): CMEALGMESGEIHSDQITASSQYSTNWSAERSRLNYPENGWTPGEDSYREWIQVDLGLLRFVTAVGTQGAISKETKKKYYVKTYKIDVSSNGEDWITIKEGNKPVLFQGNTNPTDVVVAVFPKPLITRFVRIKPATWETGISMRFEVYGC
Method: Surface Plasmon Resonance experiments were performed using a Biacore 4000 instrument at a constant temperature of 25 °C. Sensor chips, buffer stock solutions, and immobilization reagents were purchased from GE Healthcare. Recombinant human NRP1-b1 was produced in-house and recombinant human NRP1-ECD (extracellular domain) was purchased from ACRO (catalogue number NR1-H5A228). All other reagents were obtained from Sigma.
PBS containing 0.05% surfactant P20 was used as the running buffer during immobilization. NRP1-b1 was immobilized onto a CM5 chip using random amine coupling. The four flow cells were treated in the same way to optimize throughput. In summary, spots 1 and 2 were activated with the coupling reagents EDC and NHS for 10 min. NRP1-b1 at a concentration of 20 μg/mL in 10 mM sodium acetate pH 5 was injected onto the surface for 10 and 5 min in spots 1 and 2, respectively to generate surfaces with high and low density. […] The unmodified spot 3 was used as a reference.
PBS buffer containing 0.05% surfactant P20 and 3% DMSO was used as the running buffer and sample dilution buffer throughout these experiments. Dose–responses were obtained using a 2-fold sample dilution from 16 μM to 31 nM, using an injection time of 60 s. Surface regeneration between injections was not necessary, but a wash step with 1 M NaCl was included after injection of the highest concentration sample for each compound.
Binding curves were corrected for variations in DMSO concentration and normalized by molecular weight. Binding results to high and low-density surfaces were processed independently and the average ± SD is presented. K Ds reported are derived from steady-state binding responses and therefore correspond to the equilibrium binding affinity of the compounds.

[3] = test system: VEGFA-induced mechanical allodynia in rats; test: VEGFA-induced mechanical allodynia (von Frey), intraplantar injection; assay type: in vivo, rat; details: 30 μM coinjected with VEGFA165 10 nM, 50 μL intraplantar; male and female rats
Method: The procedure was performed as reported previously. Briefly, rats were gently restrained in a fabric cloth and given an intraplantar injection in the hind-paw containing VEGFA165 (10 nM) and compound (EG00229 or 12h, at 30 or 10 μM) alone or in combination in 50 μL of PBS vehicle (NaCl 137 mM, KCl 2.5 mM, Na2HPO4 10 mM, and KH2PO4 1.8 mM), using a 31G needle.

[4] = test system: total Na+ currents in rat DRG neurons; test: Whole-cell patch-clamp of Na+ currents in dissociated DRG neurons; assay type: cell-based; details: for V 1/2 activation, total Na+ / V 1/2 inactivation, total Na+: mean ± SEM (n cells)
Method: Recordings were obtained from acutely dissociated DRG neurons obtained from female rats as described earlier. Patch-clamp recordings were performed at room temperature (22–24 °C). Currents were recorded using an EPC 10 Amplifier-HEKA (HEKA Elektronik, Ludwigshafen, Germany) linked to a computer with Patchmaster software.
To determine the effect of VEGFA application on voltage-gated sodium currents, we incubated DRG neurons for 30 min with recombinant rat VEGFA, 1 nM (Cat#P4853, Abnova, Taipei, Taiwan) before whole-cell patch-clamp recordings. […] For the control condition, DRG neurons were incubated for 30 min with DMSO at a final concentration of 0.1%.
For Na^+ current (I Na+) recordings, the external solution contained (in mM): 130 NaCl, 3 KCl, 30 tetraethylammonium chloride, 1 CaCl2, 0.5 CdCl2, 1 MgCl2, 10 D-glucose and 10 HEPES (pH 7.3 adjusted with NaOH, and mOsm/L = 315). Patch pipettes were filled with an internal solution containing (in mM): 140 CsF, 1.1Cs-EGTA, 10 NaCl, and 15 HEPES (pH 7.3 adjusted with CsOH, and mOsm/L = 300). Peak Na^+ current was acquired by applying 150 ms voltage steps from – 70 to +60 mV in 5-mV increments from a holding potential of – 60 mV to obtain the current–voltage (I–V) relation.
Normalization of currents to each cell’s capacitance (pF) was performed to allow for collection of current density data. For I–V curves, functions were fitted to data using a nonlinear least-squares analysis. I–V curves were fitted using double Boltzmann functions: f=a+g1/(1+exp((x−V1/21)/k1))+g2/(1+exp(−(x−V1/22)/k2)) where x is the membrane potential, V 1/2 is the midpoint potential and k is the corresponding slope factor for single Boltzmann functions. Double Boltzmann fits were used to describe the shape of the curve, not to imply the existence of separate channel populations. Numbers 1 and 2 simply indicate first and second midpoints; a along with g are fitting parameters.
Activation curves were obtained from the I–V curves by dividing the peak current at each depolarizing step by the driving force according to the equation: G = I/(V mem – E rev), where I is the peak current, V mem is the membrane potential and E rev is the reversal potential. The conductance (G) was normalized against the maximum conductance (G max). Steady-state inactivation (SSI) curves were obtained by applying an H-infinity protocol that consisted of 1-s conditioning prepulses from −120 to +10 mV in 10-mV increments followed by a 200 ms test pulse to +10 mV. Inactivation curves were obtained by dividing the peak current recorded at the test pulse by the maximum current (I max). Activation and SSI curves were fitted with the Boltzmann equation.

In the case of `N=C(N)NCCC[C@H](NC(=O)c1sccc1NS(=O)(=O)c1cc(NCc2csc(N3CCNCC3)n2)cc2cccnc12)C(=O)O.O=CO` [Compound 12h, (2S)-5-Guanidino-2-[[3-[[6-[(2-piperazin-1-ylthiazol-4-yl)-methylamino]-8-quinolyl]-sulfonylamino]-thiophene-2-carbonyl]-amino]-pentanoic Acid, Formic Acid], the AUC(0-inf) [1] is reported as 1.37 µg·h/mL, the AUC(0-t) [1] is reported as 1.37 µg·h/mL and the Cmax [1] is reported as 5.18 µg/mL. For the same compound, the Tmax [1] was 4.8 min, the Vd [1] was 0.394 L/kg and the half-life [1] was 78 min. The clearance ([1]; iv, 2 mg/kg) was 1.47 L/h/kg, the AUC ([1]; read-out: AUC) was 1.37 µg·h/mL and the “p38 phosphorylation when added alone” value ([2]; 30 μM alone, 5 min) was “did not induce p38 phosphorylation”. For the same compound, the “effect on VEGFA-induced p38 phosphorylation” value ([2]; 30 μM, 15 min prior to VEGFA165 stimulation) was “prevented VEGFA-induced p38 phosphorylation”, the kon (NRP1 b1 domain; Figure 2B, SPR-derived binding parameters, read-out: ka) was 1.16e+06 M⁻¹ s⁻¹ and the Kd (NRP1 b1 domain; steady-state binding, 25 °C, mean ± SD, read-out: SPR NRP1 b1 domain equilibrium KD) was 0.6 ± 0.1 µM. The “effect on VEGFA-induced mechanical allodynia (paw withdrawal threshold, AUC 0-6 h)” value [3] was “comparable antinociceptive effects in males and females”, the “effect on Na+ currents, alone” value ([4]; 30 μM alone, 30 min) was “Neither EG00229 nor 12h alone had any obvious effect” and the “effect on VEGFA-induced increase in Na+ currents and current density” value ([4]; 30 μM, then VEGFA165 1 nM 30 min, small-sized DRG neurons) was “equally reduced; also recorded: prevented the VEGFA-mediated increase in total sodium currents”. For the same compound, the “V 1/2 activation, total Na+” value ([4]; compound 30 μM + VEGFA) was “–16.420 ± 0.916 (10) ^b mV”, the “V 1/2 inactivation, total Na+” value ([4]; compound 30 μM + VEGFA) was “–47.632 ± 1.411 (10) mV” and the “V 1/2 activation, total Na+” value ([4]; compound alone, 30 μM) was “–16.819 ± 0.840 (10) ^b mV”. For the same compound, the “V 1/2 inactivation, total Na+” value ([4]; compound alone, 30 μM) was “–52.032 ± 2.123 (10) mV”.

— article PMC12624434 (ACS Pharmacology & Translational Science, 2025)
